For 60 molecules, IC50 results are on record in US20020165221A1, “Mediators of hedgehog signaling pathways, compositions and uses related thereto” (priority 2000, published 2002).

For the assay, the system named is Hedgehog pathway. The assay can be described thus: Gli-Luc assay (Hedgehog-responsive Luciferase reporter), 10T1/2(s12) cells with OCT-SHH. It is filed as cell-based. The note with it: OCT-SHH 0.3 μg/ml. Here is the method: Compounds to be tested are dissolved in DMSO to a concentration of 10 MM, and stored at −20° C. To activate the Hedgehog pathway in the assay cells, an octylated (lipid-modified) form of the N-terminal fragment of the Sonic Hedgehog protein (OCT-SHH) is used. This N-terminal SHH fragment is produced bacterially.
Compounds may be tested in the “Gli-Luc” assay below, using the cell line 10T(s12), wherein the cells contain a Hedgehog-responsive reporter construct utilizing Luciferase as the reporter gene. In this way, Hedgehog pathway signaling activity can be measured via the Gli-Luc response.
10t1/2(s12) cells are plated in a 96-well micro-titer plate (MTP) at 20,000 cells/well in full medium [DMEM with 10% FBS]. Then plates are placed in the incubator for incubation overnight (O/N), at 37° C. and 5% CO2. After 24 h, the medium is replaced with Luciferase-assay medium (DMEM with 0.5% FBS). Compounds are thawed and diluted in assay medium at 3:1000 (about 300-fold) resulting in a starting concentration of about 30 μM.
Subsequently, 150 μl of each 30 μM sample is added to the first wells (in triplicate). The MTP samples are then diluted at 3-fold dilutions to a total of seven wells, ultimately resulting in a regiment of seven dilutions in triplicate, for each compound. Next, the protein ligand OCT-SHH is diluted in Luciferase-assay medium and added to each well at a final concentration of 0.3 μg/ml. Plates are then returned to the incubator for further incubation O/N, at 37° C. and 5% CO2. After about 24 h, plates are removed from the incubator and the medium is aspirated/discarded. Wells are washed once with assay buffer [PBS +1 mM Mg^2+and 1 mM Ca^2+]. Then 50 μl of assay buffer is added to each well. The Luciferase assay reagent is prepared as described by the vendor (LucLite kit from Packard), and 50 μl is added to each well. Plates are incubated at room temperature (RT) for about 30 minutes after which the signals are read, again at RT, on a Topcount (Packard).
(A reporter such as luciferase makes a cellular process visible.)
In the case of `COCC(=O)N(Cc1cccc(OC)c1)[C@H]1C[C@@H](C(=O)N2CCNCC2)N(Cc2ccc3c(c2)OCO3)C1` [P″], the half-inhibitory concentration (IC50) (in general, the concentration needed to halve the response being measured) was below 10 µM. `COc1cccc(CN(C(=O)CC(C)(C)C)C2CC(C(=O)N3CCNCC3)N(Cc3ccc(SC)s3)C2)c1` (stereo not drawn) [Z′]: the IC50 was below 1 µM. In the case of `COc1cccc(CN(C(=O)CC(C)(C)C)C2CC(C(=O)N3CCNCC3)N(Cc3cc(Br)cs3)C2)c1` (stereo not drawn) [L] it was below 10 µM; in that of `COc1cccc(CN(C(=O)C2CCCC2)C2CC(C(=O)N3CCNCC3)N(Cc3ccc4c(c3)OCCO4)C2)c1` (stereo not drawn) [W′], below 1 µM. For `O=C(C1CC(N(Cc2cccs2)C(=O)C2CC2)CN1Cc1ccc2c(c1)OCO2)N1CCNCC1` (stereo not drawn) [V] the value was below 1 µM; for `Cc1ccccc1CN(C(=O)CC(C)C)C1CC(C(=O)N2CCNCC2)N(Cc2ccc3c(c2)OCO3)C1` (stereo not drawn) [V″], below 1 µM. Regarding `COc1cccc(CN(C(=O)C2CCC2)C2CC(C(=O)N3CCNCC3)N(Cc3ccc(OC)c(OC)c3OC)C2)c1` (stereo not drawn) [T′], the concentration for half-maximal inhibition (IC50) was below 1 µM. The molecule `COc1cccc(CN(C(=O)C2CC2)C2CC(C(=O)N3CCNCC3)N(Cc3ccc4c(c3)OCO4)C2)c1` (stereo not drawn) [E] returned an IC50 below 0.1 µM. On to `COc1cccc(CN(C(=O)C(C)C)C2CC(C(=O)N3CCNCC3)N(Cc3ccc(C)s3)C2)c1` (stereo not drawn) [O], for which the IC50 was below 0.1 µM. As to `COc1cccc(CN(C(=O)CC(C)C(F)(F)F)C2CC(C(=O)N3CCNCC3)N(Cc3ccc4c(c3)OCO4)C2)c1` (stereo not drawn) [L″], the IC50 is below 1 µM. In the case of `COc1cccc(CN(C(=O)CC(C)CCC=C(C)C)C2CC(C(=O)N3CCNCC3)N(Cc3ccc4c(c3)OCO4)C2)c1` (stereo not drawn) [Q″] it was below 10 µM; in that of `COc1cccc(CN(C(=O)C2CCC2)C2CC(C(=O)N3CCNCC3)N(Cc3ccc4c(c3)OCCO4)C2)c1` (stereo not drawn) [U′], below 1 µM; in that of `COc1cccc(CN(C(=O)CC(C)(C)C)[C@H]2C[C@@H](C(=O)N3CCNCC3)N(Cc3ccc(Br)s3)C2)c1` [C″], below 1 µM. For `COc1cccc(CN(C(=O)CC(C)(C)C)C2CC(C(=O)N3CCNCC3)N(Cc3ccc(C)s3)C2)c1` (stereo not drawn) [M′] the value was below 0.1 µM. In the case of `Cc1cccc(CN(C(=O)CC(C)C)[C@H]2C[C@@H](C(=O)N3CCNCC3)N(Cc3ccc4c(c3)OCO4)C2)c1` [R″] it was below 1 µM; in that of `COc1cccc(CN(C(=O)C2CC2)C2CC(C(=O)N3CCNCC3)N(Cc3ccc(OC)c(OC)c3OC)C2)c1` (stereo not drawn) [N′], below 1 µM. Consider `CC(C)CN(C(=O)c1cccs1)C1CC(C(=O)NC2CCC(N)CC2)N(CC2CCCCC2)C1` (stereo not drawn) [J′], for which the IC50 was below 10 µM. On to `COc1cccc(CN(C(=O)CC(C)(C)C)C2CC(C(=O)N3CCNCC3)N(Cc3ccc4c(c3)OCO4)C2)c1` (stereo not drawn) [M], for which the 50% inhibitory concentration (IC50) is below 1 µM. Turning to `O=C(C1CC(N(CC2CCCCC2)CC2CC2)CN1Cc1ccc(F)cc1)N1CCCNCC1` (stereo not drawn) [C′], the IC50 is below 10 µM. Consider `COc1cccc(CN(C(=O)C2CCCC2)C2CC(C(=O)N3CCNCC3)N(Cc3ccc(OC)c(OC)c3OC)C2)c1` (stereo not drawn) [V′], for which the concentration for half-maximal inhibition (IC50) was below 1 µM. For `COc1cccc(CN2CC(N(CCc3ccccc3)Cc3ccccc3C)CC2C(=O)NCCN)c1` (stereo not drawn) [G′] the value was below 10 µM; for `CC(C)CC(=O)N(Cc1ccccc1OC(F)F)C1CC(C(=O)N2CCNCC2)N(Cc2ccc3c(c2)OCO3)C1` (stereo not drawn) [W″], below 10 µM. `COc1cccc(CN(C(=O)C(C)C)C2CC(C(=O)N3CCNCC3)N(Cc3ccc(OC)c(OC)c3OC)C2)c1` (stereo not drawn) [P′] yielded an IC50 below 10 µM. `CCC(=O)N(Cc1cccc(OC)c1)C1CC(C(=O)N2CCNCC2)N(Cc2ccc(OC)c(OC)c2OC)C1` (stereo not drawn) [S′]: the IC50 is below 10 µM. In the case of `CC(C)CC(=O)N(Cc1cccc([N+](=O)[O-])c1)C1CC(C(=O)N2CCNCC2)N(Cc2ccc3c(c2)OCO3)C1` (stereo not drawn) [U″] it was below 10 µM; in that of `COc1cccc(CN(C(=O)CC(C)(C)C)[C@H]2C[C@@H](C(=O)NC3CCNCC3)N(Cc3ccc4c(c3)OCO4)C2)c1` [B′″], below 1 µM. As for `COc1cccc(CN(C(=O)CC(C)(C)C)C2CC(C(=O)N3CCNCC3)N(Cc3ccccc3)C2)c1` (stereo not drawn) [R], the IC50 was below 1 µM. In the case of `COc1cccc(CN(C(=O)CC(C)C)C2CC(C(=O)N3CCNCC3)N(Cc3ccsc3)C2)c1` (stereo not drawn) [G] it was below 1 µM; in that of `COc1cccc(CN(C(=O)C2CC2)C2CC(C(=O)N3CCNCC3)N(Cc3ccc(C)s3)C2)c1` (stereo not drawn) [B], below 1 µM; in that of `COc1cccc(CN(C(=O)CC(C)(C)C)C2CC(C(=O)N3CCNCC3)N(Cc3ccc(OC)c(OC)c3OC)C2)c1` (stereo not drawn) [K], below 0.1 µM. In the case of `COc1cccc(CN(C(=O)CC(C)(C)C)C2CC(C(=O)N3CCCNCC3)N(Cc3ccc4c(c3)OCO4)C2)c1` (stereo not drawn) [Z] it was below 1 µM; in that of `Cc1ccccc1CN(CCc1ccccc1)C1CC(C(=O)NCC2CCC(CN)CC2)N(Cc2ccc3c(c2)OCO3)C1` (stereo not drawn) [I′], below 10 µM. `COc1cccc(CN(C(=O)CC(C)C)C2CC(C(=O)N3CCNCC3)N(Cc3ccc4c(c3)OCCO4)C2)c1` (stereo not drawn) [H] displayed an IC50 below 0.1 µM. Molecule `COc1cccc(CN(C(=O)c2cccs2)C2CC(C(=O)N3CCNCC3)N(Cc3ccc(C)s3)C2)c1` (stereo not drawn) [A] displayed an IC50 below 1 µM. `CC(C)CC(=O)N(Cc1cccc(C#N)c1)C1CC(C(=O)N2CCNCC2)N(Cc2ccc3c(c2)OCO3)C1` (stereo not drawn) [S″] returned an IC50 below 1 µM. Consider `Cc1ccc(CN2CC(N(CCc3ccccc3)Cc3ccc(F)cc3)CC2C(=O)NCCN)s1` (stereo not drawn) [H′], for which the concentration for half-maximal inhibition (IC50) was below 10 µM. In the case of `COc1cccc(CN2CC(N(Cc3cccc(OC)c3)C(=O)C3CC3)CC2C(=O)N2CCNCC2)c1` (stereo not drawn) [C] it was below 1 µM; in that of `COc1cccc(CN(C(=O)CC(C)(C)C)[C@H]2C[C@@H](C(=O)N3CCN[C@@H](C)C3)N(Cc3ccc4c(c3)OCO4)C2)c1` [Z″], below 1 µM. For `COc1cccc(CN(C(=O)CC(C)C)C2CC(C(=O)N3CCNCC3)N(Cc3ccc(OC)c(OC)c3OC)C2)c1` (stereo not drawn) [Compound I] the value was below 10 µM; for `COc1cccc(CN2CC(N(Cc3cccc(OC)c3)C(=O)CC(C)(C)C)CC2C(=O)N2CCNCC2)c1` (stereo not drawn) [F], below 1 µM. With `COc1cccc(CN(C(=O)CC(C)(C)C)[C@H]2C[C@@H](C(=O)N3CCNCC3)N(Cc3ccc(C=O)s3)C2)c1` [H″], the IC50 was below 10 µM.

Turning to `O=C(C1CC(N(CC2CCCCC2)CC2CCCO2)CN1Cc1ccc(F)cc1)N1CCNCC1` (stereo not drawn) [E′], the IC50 is below 10 µM.

For `COc1cccc(CN(C(=O)CC(C)(C)C)C2CC(C(=O)N3CCNCC3)N(Cc3ccc4c(c3)OCCO4)C2)c1` (stereo not drawn) [J], the IC50 is below 0.1 µM. For `C=CCOC(=O)N(Cc1cccc(OC)c1)[C@H]1C[C@@H](C(=O)N2CCNCC2)N(Cc2ccc3c(c2)OCO3)C1` [M″] the value was below 1 µM; for `COc1cccc(CN(C(=O)CC(C)(C)C)C2CC(C(=O)N3CCNCC3)N(Cc3cc4ccccc4n3C)C2)c1` (stereo not drawn) [F″], below 10 µM. For `COc1cccc(CN(C(=O)CC(C)(C)C)[C@H]2C[C@@H](C(=O)N3CCNCC3)N(Cc3ccc(-c4cccs4)s3)C2)c1` [D″] the value was below 10 µM; for `COC(=O)c1ccsc1CN1CC(N(Cc2cccc(OC)c2)C(=O)CC(C)(C)C)CC1C(=O)N1CCNCC1` (stereo not drawn) [B″], below 1 µM.

On to `COc1cccc(CN(C(=O)CC2CC2)[C@H]2C[C@@H](C(=O)N3CCNCC3)N(Cc3ccc4c(c3)OCO4)C2)c1` [J″], for which the IC50 was below 0.1 µM. The molecule `CC(C)CC(=O)N(Cc1cccc(OCc2ccccc2)c1)C1CC(C(=O)N2CCNCC2)N(Cc2ccc3c(c2)OCO3)C1` (stereo not drawn) [Y″] displayed an IC50 below 10 µM. `COc1cccc(CN(C(=O)CC(C)C)C2CC(C(=O)N3CCNCC3)N(Cc3ccc4c(c3)OCCO4)C2)c1` (stereo not drawn) [R′] gave an IC50 below 1 µM. For `NCCNC(=O)C1CC(N(CCc2ccccc2)Cc2ccc([N+](=O)[O-])cc2)CN1CC1CCCCC1` (stereo not drawn) [F′] the value was below 10 µM; for `COc1cccc(CN(C(=O)CC(C)(C)C)C2CC(C(=O)N3CCNCC3)N(Cc3ccc(F)cc3)C2)c1` (stereo not drawn) [X], below 10 µM; for `COc1cccc(CN(C(=O)C2CC2)C2CC(C(=O)N3CCNCC3)N(Cc3ccc(F)cc3)C2)c1` (stereo not drawn) [W], below 1 µM.

For the molecule `COc1cccc(CN(C(=O)NC(C)C)[C@H]2C[C@@H](C(=O)N3CCNCC3)N(Cc3ccc4c(c3)OCO4)C2)c1` [O″], the IC50 is below 1 µM. For `COc1cccc(CN(C(=O)CC(C)(C)C)[C@H]2C[C@@H](C(=O)N3CCNCC3)N(Cc3cc(C)c(C)o3)C2)c1` [G″] the value was below 1 µM; for `COc1cccc(CN2CC(N(Cc3cccc(OC)c3)C(=O)c3cccs3)CC2C(=O)N2CCNCC2)c1` (stereo not drawn) [Q], below 1 µM; for `COc1cccc(CN(C(=O)C(C)C)C2CC(C(=O)N3CCNCC3)N(Cc3ccc4c(c3)OCO4)C2)c1` (stereo not drawn) [P], below 0.1 µM.

In turn, `COc1cccc(CN(C(=O)c2ccco2)C2CC(C(=O)N3CCNCC3)N(Cc3ccc4c(c3)OCCO4)C2)c1` (stereo not drawn) [Q′] registered an IC50 below 10 µM.

`CCNCCCN(CC)C(=O)[C@@H]1C[C@H](N(Cc2cccc(OC)c2)C(=O)CC(C)(C)C)CN1Cc1ccc2c(c1)OCO2` [F′″]: the IC50 is below 1 µM.

Molecule `COc1cccc(CN(C(=O)C2CC2)C2CC(C(=O)N3CCNCC3)N(CC3CCCCC3)C2)c1` (stereo not drawn) [S] came in with a half-maximal inhibitory concentration (IC50) below 1 µM.
